# Source: PMC6988263 (Parasites & Vectors, 2020)
# Target: T1, rHc-HRG-2 (recombinant Hc-HRG-2) (Haemonchus contortus, UniProt A0A7I5E8W1)
# T1 construct: vector His tag), expressed in E. coli, Ni-NTA purified
# Test: GSH-CDNB conjugation, absorbance at […] nm
# Format: biochemical
# Conditions: 1 mM GSH, 0.1 M potassium phosphate pH 6.5, 10 μM protein
# T1 sequence (A0A7I5E8W1 entry or part of it): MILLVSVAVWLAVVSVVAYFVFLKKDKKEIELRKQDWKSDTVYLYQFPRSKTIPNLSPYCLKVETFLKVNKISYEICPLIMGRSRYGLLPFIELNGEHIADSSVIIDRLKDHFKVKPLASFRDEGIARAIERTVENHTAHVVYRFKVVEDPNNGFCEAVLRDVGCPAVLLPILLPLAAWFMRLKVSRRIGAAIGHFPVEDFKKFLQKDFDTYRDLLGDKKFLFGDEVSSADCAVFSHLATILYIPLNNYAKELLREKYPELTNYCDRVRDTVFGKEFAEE
smiles,measurement,value
"O=[N+]([O-])c1ccc(Cl)c([N+](=O)[O-])c1 [CDNB, 1-chloro-2,4-dinitrobenzene]",Km,508 ± 34.1 µM
